Values joined by “and” are separate entries in the source; they are usually repeats but may differ in a detail not shown here. Equal entries are not always repeated.
Tested on: MPNST complex spheroid with HUVEC/MSC, growth, % test/control
Test: Anticancer human tumor MPNST cell line growth inhibition [Asc];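 further: compounds left on spheroids for seven days before reading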
Conditions: for viability, T/C: stronger effect = lower value
Procedure, shortened: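 Tumor cells were grown as complex spheroids with human endothelial cells (HUVEC) and human mesenchymal stem cells as stroma. Agents were tested alone and in combination, in half-log steps down from the clinical Cmax, or from 10 microM where Cmax was unknown.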

Structure (SMILES): Cc1nc(N2CCC3(CC2)COC(C)C3N)c(CO)nc1Sc1ccnc(N)c1Cl (configuration not stated)
- viability, T/C (compound 0.00949 µM): 64.8% and 95.2% and 81.6%
- viability, T/C (compound 0.03 µM): 69.3% and 115% and 93.2%
- viability, T/C (compound 0.0949 µM): 81% and 125% and 89.5%
- viability, T/C (compound 0.3 µM): 48.4% and 109% and 92%
- viability, T/C (compound 0.949 µM): 55.7% and 115% and 93.5%
- viability, T/C (compound 3 µM): 18.5% and 86.6% and 80.5%
- IC50 (curve of compound): 0.964 µM and > 3 µM

Structure (SMILES): C#Cc1c(F)ccc2cc(O)cc(-c3ncc4c(N5CC6CCC(C5)N6)nc(OCC56CCCN5CC(F)C6)nc4c3F)c12 (configuration not stated) + Cc1c(S(C)(=O)=O)c(-c2cc(F)cc(N3CCN(c4ccc(NS(=O)(=O)c5ccc(NC(CCN6CCC(C(=O)OCCCP(=O)(O)O)CC6)CSc6ccccc6)c(S(=O)(=O)C(F)(F)F)c5)cc4)CC3)c2)c(-c2ccc(Cl)cc2)n1C(C)C
- IC50 (curve of first compound, second compound 0.1 µM): > 10 µM
- IC50 (curve of first compound, second compound 0.316 µM): > 10 µM
- IC50 (curve of first compound, second compound 1 µM): > 10 µM
- IC50 (curve of first compound, second compound 3.16 µM): > 10 µM
- IC50 (curve of first compound, second compound 10 µM): > 10 µM
- viability, T/C (second compound 0.1 µM, first compound 0.0316 µM): 99.2%
- viability, T/C (second compound 0.1 µM, first compound 0.1 µM): 104%
- viability, T/C (second compound 0.1 µM, first compound 0.316 µM): 92.9%
- viability, T/C (second compound 0.1 µM, first compound 1 µM): 103%
- viability, T/C (second compound 0.1 µM, first compound 3.16 µM): 99.9%
- viability, T/C (second compound 0.1 µM, first compound 10 µM): 101%
- viability, T/C (second compound 0.316 µM, first compound 0.0316 µM): 93.4%
- viability, T/C (second compound 0.316 µM, first compound 0.1 µM): 105%
- viability, T/C (second compound 0.316 µM, first compound 0.316 µM): 110%
- viability, T/C (second compound 0.316 µM, first compound 1 µM): 94.7%
- viability, T/C (second compound 0.316 µM, first compound 3.16 µM): 91%
- viability, T/C (second compound 0.316 µM, first compound 10 µM): 96.5%
- viability, T/C (second compound 1 µM, first compound 0.0316 µM): 97%
- viability, T/C (second compound 1 µM, first compound 0.1 µM): 99.2%
- viability, T/C (second compound 1 µM, first compound 0.316 µM): 101%
- viability, T/C (second compound 1 µM, first compound 1 µM): 95.4%
- viability, T/C (second compound 1 µM, first compound 3.16 µM): 93.4%
- viability, T/C (second compound 1 µM, first compound 10 µM): 77%
- viability, T/C (second compound 3.16 µM, first compound 0.0316 µM): 80.5%
- viability, T/C (second compound 3.16 µM, first compound 0.1 µM): 91.2%
- viability, T/C (second compound 3.16 µM, first compound 0.316 µM): 117%
- viability, T/C (second compound 3.16 µM, first compound 1 µM): 101%
- viability, T/C (second compound 3.16 µM, first compound 3.16 µM): 78.2%
- viability, T/C (second compound 3.16 µM, first compound 10 µM): 71.8%
- viability, T/C (second compound 10 µM, first compound 0.0316 µM): 121%
- viability, T/C (second compound 10 µM, first compound 0.1 µM): 135%
- viability, T/C (second compound 10 µM, first compound 0.316 µM): 118%
- viability, T/C (second compound 10 µM, first compound 1 µM): 158%
- viability, T/C (second compound 10 µM, first compound 3.16 µM): 108%
- viability, T/C (second compound 10 µM, first compound 10 µM): 124%

Structure (SMILES): C#Cc1c(F)ccc2cc(O)cc(-c3ncc4c(N5CC6CCC(C5)N6)nc(OCC56CCCN5CC(F)C6)nc4c3F)c12 (configuration not stated) + CCN1C(C(=O)NC23CCC(C(=O)O)(CC2)CC3)C(c2cccc(Cl)c2F)C2(C(=O)Nc3cc(Cl)ccc32)C12CCCCC2
- IC50 (curve of first compound, second compound 0.03 µM): > 10 µM
- IC50 (curve of first compound, second compound 0.0949 µM): > 10 µM
- IC50 (curve of first compound, second compound 0.3 µM): > 10 µM
- IC50 (curve of first compound, second compound 0.949 µM): > 10 µM
- IC50 (curve of first compound, second compound 3 µM): > 10 µM
- viability, T/C (second compound 0.03 µM, first compound 0.0316 µM): 71.3%
- viability, T/C (second compound 0.03 µM, first compound 0.1 µM): 72.9%
- viability, T/C (second compound 0.03 µM, first compound 0.316 µM): 79.2%
- viability, T/C (second compound 0.03 µM, first compound 1 µM): 75.8%
- viability, T/C (second compound 0.03 µM, first compound 3.16 µM): 78.4%
- viability, T/C (second compound 0.03 µM, first compound 10 µM): 68.4%
- viability, T/C (second compound 0.0949 µM, first compound 0.0316 µM): 70.3%
- viability, T/C (second compound 0.0949 µM, first compound 0.1 µM): 83.3%
- viability, T/C (second compound 0.0949 µM, first compound 0.316 µM): 75.7%
- viability, T/C (second compound 0.0949 µM, first compound 1 µM): 76.7%
- viability, T/C (second compound 0.0949 µM, first compound 3.16 µM): 71.2%
- viability, T/C (second compound 0.0949 µM, first compound 10 µM): 77%
- viability, T/C (second compound 0.3 µM, first compound 0.0316 µM): 84.6%
- viability, T/C (second compound 0.3 µM, first compound 0.1 µM): 73.6%
- viability, T/C (second compound 0.3 µM, first compound 0.316 µM): 89.1%
- viability, T/C (second compound 0.3 µM, first compound 1 µM): 72.6%
- viability, T/C (second compound 0.3 µM, first compound 3.16 µM): 60.8%
- viability, T/C (second compound 0.3 µM, first compound 10 µM): 51%
- viability, T/C (second compound 0.949 µM, first compound 0.0316 µM): 66.8%
- viability, T/C (second compound 0.949 µM, first compound 0.1 µM): 72%
- viability, T/C (second compound 0.949 µM, first compound 0.316 µM): 73%
- viability, T/C (second compound 0.949 µM, first compound 1 µM): 60.9%
- viability, T/C (second compound 0.949 µM, first compound 3.16 µM): 61.1%
- viability, T/C (second compound 0.949 µM, first compound 10 µM): 52.5%
- viability, T/C (second compound 3 µM, first compound 0.0316 µM): 66.5%
- viability, T/C (second compound 3 µM, first compound 0.1 µM): 62.2%
- viability, T/C (second compound 3 µM, first compound 0.316 µM): 57.8%
- viability, T/C (second compound 3 µM, first compound 1 µM): 59.8%
- viability, T/C (second compound 3 µM, first compound 3.16 µM): 60.1%
- viability, T/C (second compound 3 µM, first compound 10 µM): 68.8%

Source: PubChem BioAssay AID1963442 (Molecular Pharmacology Branch, DTP, NCI, 2024)
